One may read the residual activity as the signal under treatment as a percentage of the control signal. A word on the half-life: it is the time in which the quantity being followed falls by half.

These results are taken from ChEMBL document CHEMBL1158360, “Large ring 1,3-bridged 2-azetidinones: experimental and theoretical studies” (Eur J Med Chem, 2009).

Series [1] addresses T1, MecA (Staphylococcus aureus) (UniProt Q7DHH4).
T1 sequence (whole entry): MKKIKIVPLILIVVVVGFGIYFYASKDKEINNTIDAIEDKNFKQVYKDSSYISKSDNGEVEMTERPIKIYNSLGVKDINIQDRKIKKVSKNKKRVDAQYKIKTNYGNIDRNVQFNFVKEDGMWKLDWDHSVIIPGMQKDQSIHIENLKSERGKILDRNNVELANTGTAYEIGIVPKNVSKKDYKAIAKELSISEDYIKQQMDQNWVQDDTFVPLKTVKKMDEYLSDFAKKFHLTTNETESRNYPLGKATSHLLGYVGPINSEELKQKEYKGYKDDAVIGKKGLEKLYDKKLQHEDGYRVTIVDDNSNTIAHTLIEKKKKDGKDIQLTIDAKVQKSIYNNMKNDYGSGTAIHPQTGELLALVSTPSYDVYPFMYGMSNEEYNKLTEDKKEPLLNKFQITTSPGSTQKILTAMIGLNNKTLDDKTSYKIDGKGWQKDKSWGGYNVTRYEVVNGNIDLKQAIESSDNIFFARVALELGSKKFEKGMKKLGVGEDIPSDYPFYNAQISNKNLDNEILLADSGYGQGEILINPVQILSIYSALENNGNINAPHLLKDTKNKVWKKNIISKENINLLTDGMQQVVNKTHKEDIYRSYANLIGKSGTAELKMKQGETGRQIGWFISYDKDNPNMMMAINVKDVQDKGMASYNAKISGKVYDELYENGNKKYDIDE
The experiment in a line: Inhibition of methicillin-resistant Staphylococcus aureus ATCC […] PBP2a assessed as residual activity at 100 uM after 16 hrs. Particulars: values are per cent of control.

The test system of series [2] is Enterococcus faecium. The experiment in a line: Residual activity of Enterococcus faecium PBP5fm at 100 uM after 16 hrs.
Series [3] has as its target T2, Penicillin-binding protein 2x (Streptococcus pneumoniae serotype 4 (strain ATCC BAA-334 / TIGR4)) (UniProt P14677).
T2 sequence (whole entry): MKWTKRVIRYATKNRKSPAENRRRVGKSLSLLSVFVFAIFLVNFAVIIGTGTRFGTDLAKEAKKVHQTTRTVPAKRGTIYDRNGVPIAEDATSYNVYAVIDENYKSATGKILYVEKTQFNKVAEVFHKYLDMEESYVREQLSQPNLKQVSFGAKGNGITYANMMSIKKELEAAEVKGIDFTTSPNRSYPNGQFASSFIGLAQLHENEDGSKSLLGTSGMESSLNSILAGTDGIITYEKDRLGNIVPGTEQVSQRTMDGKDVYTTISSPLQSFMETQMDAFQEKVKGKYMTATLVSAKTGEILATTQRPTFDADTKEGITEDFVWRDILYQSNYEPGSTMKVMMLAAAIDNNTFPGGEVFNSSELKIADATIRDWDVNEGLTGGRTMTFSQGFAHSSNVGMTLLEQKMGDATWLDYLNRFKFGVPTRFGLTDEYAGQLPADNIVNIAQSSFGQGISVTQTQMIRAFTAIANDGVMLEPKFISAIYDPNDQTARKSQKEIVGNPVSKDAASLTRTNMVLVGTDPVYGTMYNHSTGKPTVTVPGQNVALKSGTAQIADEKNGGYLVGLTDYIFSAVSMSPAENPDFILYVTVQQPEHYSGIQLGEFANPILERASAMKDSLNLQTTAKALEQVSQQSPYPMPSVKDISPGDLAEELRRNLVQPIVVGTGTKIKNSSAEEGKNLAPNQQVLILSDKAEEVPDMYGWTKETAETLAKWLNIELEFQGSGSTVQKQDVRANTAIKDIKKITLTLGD
The experiment in a line: Residual activity of Streptococcus pneumoniae 5204 PBP2x at 100 uM after 16 hrs.

Series [4] can be described thus: Inhibition of beta-lactamase TEM1 at 100 uM.
A short description of series [5]: Chemical stability assessed as hydrolysis half life. Format: physicochemical.
Series [6] deals with D-alanyl-D-alanine carboxypeptidase (Actinomadura sp. R39) (UniProt P39045). The experiment in a line: Residual activity of Actinomadura R39 DD-peptidase at 100 uM after 16 hrs.
Series [7] has as its target Chymotrypsin-like elastase family member 1 (Sus scrofa) (UniProt P00772). The experiment in a line: Inhibition of pig pancreatic elastase assessed as formation of p-nitroaniline at 100 uM.
Series [8] has the same target. The experiment in a line: Reversible inhibition of pig pancreatic elastase at 1 to 100 uM preincubated for 20 mins before addition of N-succinyl-L-alanyl-Lalanyl- L-alanyl-p-nitroanilide by incubation/dilution method.
The target is the same in series [9]. The experiment in a line: Reversible inhibition of pig pancreatic elastase at 1 to 100 uM preincubated for 60 mins before addition of N-succinyl-L-alanyl-Lalanyl- L-alanyl-p-nitroanilide by incubation/dilution method.
Series [10] has the same target. The experiment in a line: Inhibition of pig pancreatic elastase assessed as formation of p-nitroaniline at 1 uM.
Series [11] shares this target. The experiment in a line: Reversible inhibition of pig pancreatic elastase at 1 to 100 uM preincubated for 40 mins before addition of N-succinyl-L-alanyl-Lalanyl- L-alanyl-p-nitroanilide by incubation/dilution method.

Active and inactive are the calls of the source. The rule behind the calls is not given here.

Chymotrypsin-like elastase family member 1 (Sus scrofa), sequence (P00772 whole entry): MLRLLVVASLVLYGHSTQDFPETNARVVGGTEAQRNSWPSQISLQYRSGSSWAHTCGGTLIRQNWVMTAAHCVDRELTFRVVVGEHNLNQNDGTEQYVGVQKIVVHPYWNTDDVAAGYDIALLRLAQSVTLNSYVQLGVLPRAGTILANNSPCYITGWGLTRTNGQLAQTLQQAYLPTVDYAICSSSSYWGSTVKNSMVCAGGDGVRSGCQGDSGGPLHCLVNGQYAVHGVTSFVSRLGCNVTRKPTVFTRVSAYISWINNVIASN

For the compound `CC1(C)S[C@@H]2[C@H](NC(=O)Cc3ccccc3)C(=O)N2[C@H]1C(=O)O`, the residual activity in series [1] was 13%; in series [2] it was 10%; in [3], less than 5%.

As to `CC(=O)O[C@@H]1[C@@H]2C(=O)N1C(=O)CCCCCCC(=O)O[C@@H]2C`, the inhibition entry in series [4] and in series [7] was “inactive” in each case. Moreover, the residual activity in [1] stood at 94%; in series [6], 113%; in [2], 113%; in series [3], 99%. For the same compound, the half-life in [5] is 4 h.

Turning to `CC(=O)O[C@@H]1[C@@H]2C(=O)N1C(=O)CC/C=C/CCC(=O)O[C@@H]2C`, the inhibition entry in series [4] and in series [7] was “inactive” each time. Also, the residual activity worked out at 86% in series [1], 96% in series [6], 104% in [2] and 116% in series [3]. Also, the half-life in series [5] was 6 h.

For the compound `C=CCCC(=O)O[C@H](C)[C@H]1C(=O)N(C(=O)CCC=C)[C@@H]1OC(C)=O`, in series [4], the inhibition entry was “inactive”. The residual activity turned out to be 66% in series [1], 14% in series [6], 84% in series [2] and 93% in [3]. In addition, the half-life in [5] was 16 h. Besides, the inhibition result in [8], in [9], in series [10] and in [11] was “Active” in each case.
